Read-outs that look alike come from different tables or passages of the source.

Here are results for one compound from patent publication US20250282802A1, “P[…] AND METHODS” (priority 2020, published 2025).

The test system of experiment [1] is human cell lines. In words: Cytotoxicity profiling against a panel of human cell lines. The format is cell-based. The conditions noted are these: human cell lines of Table 2, with the exception of ES-2; read-out: IC50 levels, range for each of the cell lines tested. As to the method:
Cell culture cytotoxicity screening. The compounds were evaluated for their ability to kill cancer cell lines in culture, using HOS (osteosarcoma); ES-2 (ovarian cancer); HCT 116 (colon cancer); A549 (lung carcinoma); and A172 (glioma) cells. Human skin fibroblast cells (HFF-1) were also assessed. Cells were seeded (3000 cells well^−1 for ES-2, HCT 116, A549 and A172; 4000 cells well^−1 for HFF-1 and 2500 cells well^−1 for HOS) in a 96-well plate and allowed to attach overnight. Cells were treated with pantaphos in water. The concentrations of the tested compounds were 5 nM to 100 μM (1% water final; 100 μl well^−1). Raptinal (50 μM) was used as a dead control. On each plate, five technical replicates per compound were performed. 72 hours post-treatment, cell viability was assessed using the Alamar Blue method (http://www.bio-rad-antibodies.com/measuring-cytotoxicity-proliferation-spectrophotometry-fluorescence-alamarBlue.html). Alamar Blue solution (10 μl of 440 μM resazurin in sterile 1×PBS) was added to each well, and the plate was incubated for 3-4 hrs. Conversion of Alamar Blue was measured with a plate reader (SpectraMax M3; Molecular Devices) by fluorescence (excitation wavelength: 555 nm; emission wavelength: 585 nm; cutoff 570 nm; autogain). Percentage death was determined by normalizing to water-treated cells and Raptinal-treated cells. […]

Experiment [2] concerns Saccharomyces cerevisiae X2180-1A. In words: Fungicidal bioassay (MIC), Saccharomyces cerevisiae. The format is cell-based. The note with it: for MIC: Saccharomyces cerevisiae, X21801A, 48 hrs growth, CLSI. The procedure: Bacteria, plasmids and growth conditions. Bacterial strains, plasmids and primers used in this study are described in Table 3 and 4. General chemical and molecular biology reagents were purchased from Sigma-Aldrich or New England Biolabs. Phosphinothricin (glufosinate) was purchased from GoldBio (CAS #77182-82-2). Standard bacterial growth media were prepared as described (Current Protocols in Molecular Biology 2019, 125:e81, e82, e83). E. coli strains were typically grown at 37° C.; P. ananatis strains were typically grown at 30° C. Phosphonate induction media (PIM) was prepared as follows: 8.37 g/L MOPS, 0.72 g/L Tricine, 0.58 g/L NaCl, 0.51 g/L NH4Cl, 1.6 g/L KOH, 0.1 g/L MgCl2·6H2O, 0.05 g/L K2SO4, 0.2 g/L K2HIPO4 were dissolved H2O and steam sterilized for 20 min at 121° C. After cooling, 1× sterile trace element solution was added (1000× stock: 1.5 g/L nitrilotriacetic acid trisodium salt, 0.8 g/L Fe(NH4)2(SO4)2·7H2O, 0.2 g/L Na2SeO3, 0.1 g/L CoCl2·6H2O, 0.1 g/L MnSO4·H2O, 0.1 g/L Na2MoO4·2H2O, 0.1 g/L Na2WO4·2H2O, 0.1 g/L ZnSO4·7H2O, 0.1 g/L NiCl2·6H2O, 0.01 g/L H3BO3, 0.01 g/L CuSO4·5H2O) followed by addition of 1% (v/v) sterile glycerol and 50 μg/mL sterile kanamycin. For culturing of Candida and Saccharomyces strains, Rosewell Park Memorial Institute 1640 medium (RPMI; Sigma-Aldrich R6504) was used for liquid culturing and Sabouraud Dextrose Agar (SDA; Difco™ 210950) for solid plating unless otherwise specified. For Aspergillus strains, Rosewell Park Memorial Institute 1640 medium (RPMI) was used for liquid culturing and Potato Dextrose Agar (PDA; Difco™ 213400) was used for solid plating unless otherwise specified. YMM medium (6.7 g/L yeast nitrogen base without amino acids [BD Difco™ 291940], 20 g/L glucose, 1× trace element solution) was used as minimal media for fungal strains.
Fungicidal bioassays. […] Minimum Inhibitory Concentration (MIC) was determined visually by finding the concentration of compound at which there was no visual difference between that concentration and the uninoculated media control.

For the compound `O=C(O)/C=C(\C(=O)O)C(O)P(=O)(O)O` (stereo not shown) [pantaphos, 2-(hydroxy(phosphono)methyl)maleate], the IC50 in experiment [1] fell in the range of 6 to 37 µM. Besides, the MIC was more than 62.5 µM in experiment [2] (M9 minimal medium, read-out: MIC, Minimal medium) and more than 125 µM in experiment [2] (RPMI 1640 medium, read-out: MIC, Rich medium). Further, the “effect on the growth of fungi, in words” value in experiment [2] (rich or minimal media) was “no effect on the growth”.
